From patent US20260217701A1, “SELECTIVE BET INHIBITORS AND USES THEREOF” (Tay Therapeutics Limited, priority 2022, published 2026)

Legend:
[1] = tested on: idiopathic pulmonary fibrosis (bleomycin); assay: Bleomycin IPF model: functional lung volume by micro-CT; format: in vivo, C57BI/6J mice; parameters: Functional Lung Volume, Mean: unit not given here; conditions: Day 21
Method: Animals were acclimated for two weeks prior to study initiation, and were randomized into the experimental groups outlined in Table 32. Intratracheal (IT) administration of Bleo or PBS control was conducted at the start of the study (Day 0). […] Following administration of Bleo, animals (n=10/group) were included in the study if they met the following guidelines on Day 7: […] Micro-CT imaging was also performed on Day 7 to determine relative fibrosis and on Day 21. […] Images were acquired with a respiratory gated technique with the following parameters: X-ray tube voltage: 90 KV; X-ray tube current: 88 μA; total scan time: 4 minutes. The system was calibrated monthly with standard phantoms for noise, uniformity, low contrast, and resolution to ensure consistency.

lupus [2] = assay: SLE (lupus) model: proteinuria scores; format: in vivo, MRL/MpJ-Faslpr mice; conditions: for End proteinuria score ± SEM: end of study (Week 19)
Method: (§1) Female MRL/MpJ-Faslpr mice (The Jackson Laboratory) were used to assess the efficacy of Compound A in treating lupus. Starting when animals were 10 weeks of age, protein concentration in urine was measured using urine dipsticks.
(§2) At the start of the study, each group in the study had two animals that were 9 weeks old, and all others were 10 weeks old. Dosing of all animals with the test compounds began when the older animals were 11 weeks old. […] […] Dosing was at a consistent time each dosing day throughout the study.
(§3) Compound A may be formulated as illustrated in Experimental Method A (see Table 2E.). […] A stock solution of Compound A in DMSO (stock solution concentration of Compound A of 40 mg/mL) was prepared and aliquots for weekly preparations were frozen at −20° C. On each preparation day, a stock solution aliquot was thawed and diluted with other vehicle components to the desired concentration. Formulated Compound A and vehicle were at room temperature for dosing.
(§4) The study began when the older animals were 11 weeks old, and concluded when the older animals were 19 weeks old. Body weight was recorded once a week, with the exception of two weight measurements taken the first week of the study (when the older animals were 11 weeks old). Proteinuria was measured in the urine of animals with urine dipsticks once a week, starting when the older animals were 10 weeks old. […] Blood samples were taken retro-orbitally at the start of the study to establish a baseline (15 animals, 3 per group), and when the older animals were 16 weeks (all animals) and when animals were 19 weeks (all animals) at the conclusion of the study. Blood urea nitrogen (BUN) was measured in all animals at study termination in blood samples. After blood collection, animals were euthanized, perfused with PBS, and the left kidneys were collected and weighed and fixed in 10% buffered formalin. Left kidneys were then processed to a formalin-fixed, paraffin-embedded (FFPE) block, and histology was analyzed in Periodic Acid-Schiff-stained sections (1 section per slide), using the criteria described in Alperovich et al., Lupus, 16:18-24 (2007). Right kidneys were weighed and snap-frozen at −80° C. Spleens were also collected and weighed. SLE in animals treated with a BET inhibitor and vehicle.

lupus [3] = assay: SLE (lupus) model: kidney and spleen weight; format: in vivo, MRL/MpJ-Faslpr mice; conditions: Week 19
Method: as §1, §2, §3, §4

lupus [4] = assay: SLE (lupus) model: blood urea nitrogen (BUN) in serum; format: in vivo, MRL/MpJ-Faslpr mice; conditions: Week 19
Method: as §1
At the start of the study, each group in the study had two animals that were 9 weeks old, and all others were 10 weeks old. Dosing of all animals with the test compounds began when the older animals were 11 weeks old. Starting on Day 1, in Groups 1-4, vehicle or Compound A was administered per os (PO) […] (QD) as described above in Table 33. […] Dosing was at a consistent time each dosing day throughout the study.
as §3, §4
BUN provides important information about how well kidneys are working. A BUN test measures the amount of urea nitrogen in the blood and indicates how much urea has been processed by the kidneys and is indicative of renal competency. Urea is a waste product that is excreted in urine.

[5] = tested on: gastrointestinal mucosa / goblet cells; assay: Gastrointestinal histopathology (Dog PK Study #4); format: in vivo; conditions: healthy beagle dogs; 10 mg/kg; Day 15
Method: Oral pan-BD BET inhibitors are known to negatively impact gastrointestinal mucosa through goblet cell toxicity, leading to related gastrointestinal adverse events in the clinic (Faivre et al., Nature, 578:306-310 (2020)). Therefore, the impact of Compound A on gastrointestinal toxicity and the mucosa was assessed in healthy beagle dogs as part of Dog PK Study #4, outlined in Experimental Method B.
Following completion of Dog PK study #4 on Day 15, animals were euthanized, and the large and small intestines were collected and fixed in 10% neutral buffered formalin. The tissues were then removed from the fixative, processed, embedded in paraffin, sectioned, and stained with hematoxylin and eosin, prior to microscopic examination.

For `Cn1cc(-c2ccccc2)c(-c2cn(C)c(=O)c3[nH]c(-c4cnn(C(F)(F)F)c4)cc23)cc1=O` [Compound A, 6-methyl-4-(1-methyl-2-oxo-5-phenyl-1,2-dihydropyridin-4-yl)-2-(1-(trifluoromethyl)-1H-pyrazol-4-yl)-1,6-dihydro-7H-pyrrolo[2,3-c]pyridin-7-one], the “Functional Lung Volume, Mean” value ([1]; Bleo + Compound A (1 mg/kg) OG QOD from D7) was 283.165, the “Functional Lung Volume, Mean” value ([1]; Bleo + Compound A (3 mg/kg) OG QOD from D7) was 343.5975 and the “Functional Lung Volume, Mean” value ([1]; Bleo + Compound A (10 mg/kg) OG QOD from D7) was 452.7838. For the same compound, the “Mean improvement in functional lung volume compared to Group 2” value ([1]; Group 5, 10 mg/kg) was about 52.7%, the “Proteinuria levels, lower than vehicle-treated group” value (lupus [2]; 10 mg/kg, Week 19) was “about 74.8%” and the Proteinuria levels (lupus [2]; 1, 3, 10 mg/kg) was “reduced proteinuria levels in a dose-dependent manner”. The Mean proteinuria score (lupus [2]; Compound A 1 mg/kg PO QD, Week 10) was 1.96, the Mean proteinuria score (lupus [2]; Compound A 1 mg/kg PO QD, Week 11) was 1.96 + and the Mean proteinuria score (lupus [2]; Compound A 1 mg/kg PO QD, Week 12) was 2.29. The Mean proteinuria score (lupus [2]; Compound A 1 mg/kg PO QD, Week 13) was 2.57, the Mean proteinuria score (lupus [2]; Compound A 1 mg/kg PO QD, Week 14) was 2.79 and the Mean proteinuria score (lupus [2]; Compound A 1 mg/kg PO QD, Week 15) was 3.07. For the same compound, the Mean proteinuria score (lupus [2]; Compound A 1 mg/kg PO QD, Week 16) was 2.82, the Mean proteinuria score (lupus [2]; Compound A 1 mg/kg PO QD, Week 17) was 3.07 and the Mean proteinuria score (lupus [2]; Compound A 1 mg/kg PO QD, Week 18) was 3.11±. The Mean proteinuria score (lupus [2]; Compound A 1 mg/kg PO QD, Week 19) was 3.36, the “End proteinuria score ± SEM” value (lupus [2]; Compound A 1 mg/kg PO QD) was 3.36 ± 0.19 and the Mean proteinuria score (lupus [2]; Compound A 3 mg/kg PO QD, Week 10) was 1.96. It also gave a Mean proteinuria score (lupus [2]; Compound A 3 mg/kg PO QD, Week 11) of 1.96, a Mean proteinuria score (lupus [2]; Compound A 3 mg/kg PO QD, Week 12) of 2.04 and a Mean proteinuria score (lupus [2]; Compound A 3 mg/kg PO QD, Week 13) of 2.50. For the same compound, the Mean proteinuria score (lupus [2]; Compound A 3 mg/kg PO QD, Week 14) was 2.46, the Mean proteinuria score (lupus [2]; Compound A 3 mg/kg PO QD, Week 15) was 2.85 and the Mean proteinuria score (lupus [2]; Compound A 3 mg/kg PO QD, Week 16) was 2.65. The Mean proteinuria score (lupus [2]; Compound A 3 mg/kg PO QD, Week 17) was 2.77, the Mean proteinuria score (lupus [2]; Compound A 3 mg/kg PO QD, Week 18) was 2.73 and the Mean proteinuria score (lupus [2]; Compound A 3 mg/kg PO QD, Week 19) was 3.04. For the same compound, the “End proteinuria score ± SEM” value (lupus [2]; Compound A 3 mg/kg PO QD) was 3.04 ± 0.24, the Mean proteinuria score (lupus [2]; Compound A 10 mg/kg PO QD, Week 10) was 1.96 and the Mean proteinuria score (lupus [2]; Compound A 10 mg/kg PO QD, Week 11) was 1.96. It also gave a Mean proteinuria score (lupus [2]; Compound A 10 mg/kg PO QD, Week 12) of 2.04, a Mean proteinuria score (lupus [2]; Compound A 10 mg/kg PO QD, Week 13) of 2.21 and a Mean proteinuria score (lupus [2]; Compound A 10 mg/kg PO QD, Week 14) of 2.07. It also gave a Mean proteinuria score (lupus [2]; Compound A 10 mg/kg PO QD, Week 15) of 2.43, a Mean proteinuria score (lupus [2]; Compound A 10 mg/kg PO QD, Week 16) of 2.32 and a Mean proteinuria score (lupus [2]; Compound A 10 mg/kg PO QD, Week 17) of 2.32. The Mean proteinuria score (lupus [2]; Compound A 10 mg/kg PO QD, Week 18) was 2.00, the Mean proteinuria score (lupus [2]; Compound A 10 mg/kg PO QD, Week 19) was 2.32 and the “End proteinuria score ± SEM” value (lupus [2]; Compound A 10 mg/kg PO QD) was 2.32 ± 0.15. The “Mean Kidney Weight” value (lupus [3]; Compound A 1 mg/kg PO QD) was 245 mg, the “Mean Spleen Weight” value (lupus [3]; Compound A 1 mg/kg PO QD) was 241 mg and the “Mean Kidney Weight” value (lupus [3]; Compound A 3 mg/kg PO QD) was 245 mg. For the same compound, the “Mean Spleen Weight” value (lupus [3]; Compound A 3 mg/kg PO QD) was 361 mg, the “Mean Kidney Weight” value (lupus [3]; Compound A 10 mg/kg PO QD) was 225 mg and the “Mean Spleen Weight” value (lupus [3]; Compound A 10 mg/kg PO QD) was 170 mg. The “Kidney weights relative to controls” value (lupus [3]; Compound A (10 mg/kg) and cyclophosphamide groups) was “slightly decreased kidney weights”, the “Spleen weights relative to vehicle controls” value (lupus [3]; Compound A (all tested doses) and cyclophosphamide) was “decreased spleen weights” and the BUN serum concentration (lupus [4]; Compound A 1 mg/kg PO QD) was 18.0 mg/dL. For the same compound, the BUN serum concentration (lupus [4]; Compound A 3 mg/kg PO QD) was 16.8 mg/dL, the BUN serum concentration (lupus [4]; Compound A 10 mg/kg PO QD) was 11.0 mg/dL and the “Blood urea nitrogen (BUN) concentration in serum” value (lupus [4]; highest dose (10 mg/mL)) was 11 mg/dL. The “Effect on gastrointestinal villus morphology or goblet cell number” value [5] was “no deleterious effect”.
